Laboratory results taken from patent US10906876B2, “Tetrahydroisoquinolines as selective NADPH oxidase 2 inhibitors” (University of Pittsburgh—Of the Commonwealth System of …, priority 2013, dated 2021).
Read-outs that look alike come from different tables or passages of the source.

How the values were obtained:
[1] = target: T1, Nox2 (Homo sapiens, UniProt P04839); assay: Cell-free superoxide production in lysed COS-Nox2 cells / Nox2 cell homogenate, cytochrome C assay; type: biochemical
T1 construct: expressed in transfected cells
T1 sequence (P04839 2-570 limits assumed): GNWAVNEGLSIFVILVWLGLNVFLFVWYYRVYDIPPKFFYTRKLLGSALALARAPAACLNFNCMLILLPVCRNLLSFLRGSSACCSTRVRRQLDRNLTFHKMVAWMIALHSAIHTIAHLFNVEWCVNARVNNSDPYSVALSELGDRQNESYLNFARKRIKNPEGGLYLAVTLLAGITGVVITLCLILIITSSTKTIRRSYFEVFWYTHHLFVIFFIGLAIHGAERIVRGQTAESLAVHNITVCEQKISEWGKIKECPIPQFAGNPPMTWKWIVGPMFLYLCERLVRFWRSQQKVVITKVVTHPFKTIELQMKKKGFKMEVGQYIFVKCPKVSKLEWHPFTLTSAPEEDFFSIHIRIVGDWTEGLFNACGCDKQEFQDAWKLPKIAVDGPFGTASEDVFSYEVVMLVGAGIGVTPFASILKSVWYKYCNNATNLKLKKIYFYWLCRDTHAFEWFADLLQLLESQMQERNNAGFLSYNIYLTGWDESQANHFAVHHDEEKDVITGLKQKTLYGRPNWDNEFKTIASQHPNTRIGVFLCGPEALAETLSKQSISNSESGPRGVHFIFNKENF
Experimental: COS-Nox2, COS-Nox1/NOXO1/NOXA1 and COS-22 cells were suspended to a concentration of 5×10^7 cells/ml in ice-cold disruption buffer (8 mM potassium, sodium phosphate buffer pH 7.0, 131 mM NaCl, 340 mM sucrose, 2 mM NaN3, 5 mM MgCl2, 1 mM EGTA, 1 mM EDTA and protease inhibitor cocktail) (Price et al., Blood, 2002, 99:2653-2661; Molshanski-Mor et al., Methods Mol. Biol., 2007, 412:385-428). The cells were lysed by freeze/thaw cycles (5 cycles), and passed through a 30-gauge needle 5 times to further lyse the cells. Cell disruption was confirmed by phase contrast microscopy. The cell lysate was centrifuged at 1000×g for 10 min at 4° C. to remove unbroken cells, nuclei and debris. Throughout all procedures, extreme care was taken to maintain the lysate at a temperature close to 0° C. Superoxide (O2^•−) production was calculated from the initial linear rate (over 10 min) of SOD-inhibitable cytochrome c reduction quantified at 550 nm using the extinction coefficient of 21.1 mM^−1 cm^−1 (Biotek Synergy 4 Hybrid Multi-Mode Microplate Reader). The oxidase assay buffer consisted of 65 mM sodium phosphate buffer (pH 7.0), 1 mM EGTA, 10 μM FAD, 1 mM MgCl2, 2 mM NaN3 and 0.2 mM cytochrome C. The components of the cell-free system were added in the following order: oxidase assay buffer, cell lysate (5×10^5 cell equivalents/well) and drugs at a final concentration as shown on individual graphs. The plates were placed on an orbital shaker to mix contents for 5 min at 120 movements/min at room temperature. LiDS, an established lipid activator of phagocyte cell-free system, was added at a concentration of 130 μM and O2^•− production was initiated by the addition of 180 μM NADPH.
Cell-free activity in lysed COS-Nox2 cells was promising, since compound 7 was also able to inhibit O2^•− production in a system in which assembly of active Nox2 subunits is achieved by treatment with the anionic amphiphile LiDS (lithium dodecyl sulfate) and the reaction is initiated by cofactor NADPH (Molshanski-Mor et al., Methods Mol. Biol. 2007, 412:385-428). COS-Nox2 cell lysate was preincubated with various concentrations of compound 7 for 15 min at 25° C. After the addition of 130 μM LiDS, O2^•− production was initiated by the addition of 180 μM NADPH and measured by the initial linear rate of SOD-inhibitable cytochrome C reduction. O2^•− production is expressed as nmol O2^•−/min/10^7 cell equivalents.
Cells were suspended to a concentration of 5×10^7 cells/ml in ice-cold disruption buffer (8 mM potassium, sodium phosphate buffer pH 7.0, 131 mM NaCl, 340 mM sucrose, 2 mM NaN3, 5 mM MgCl2, 1 mM EGTA, 1 mM EDTA and protease inhibitor cocktail). The cells were lysed by freeze/thaw cycles (5 cycles), and passed through a 30-gauge needle five times to further lyse the cells. Cell disruption was confirmed by phase contrast microscopy. The cell lysate was centrifuged at 1000×g for 10 min at 4° C. to remove unbroken cells, nuclei and debris. Throughout all procedures, extreme care was taken to maintain the lysate at a temperature close to 0° C.
Superoxide (O2^•−) production from cell homogenates was calculated from the initial linear rate (over 10 min) of SOD-inhibitable cytochrome c reduction quantified at 550 nm using the extinction coefficient of 21.1 mM-1 cm-1 (Biotek Synergy 4 Hybrid Multi-Mode Microplate Reader). The oxidase assay buffer consisted of 65 mM sodium phosphate buffer (pH 7.0), 1 mM EGTA, 10 μM FAD, 1 mM MgCl2, 2 mM NaN3 and 0.2 mM cytochrome C.

[2] = tested on: cells; assay: Cytotoxicity assay (CytoTox-Glo); type: cell-based; settings: highest concentration tested (25 and 50 μM tested, FIG. 5)
Experimental: The cytotoxic effect of compounds was tested using CytoTox-Glo kit (Promega, Madison, Wis.). This assay uses a luminogenic peptide substrate, the AAF-Glo™ Substrate, to measure dead-cell protease activity, which is released from cells that have lost membrane integrity. Cells were plated in 384-well plate at 2.5×10^3 cells/well in OPTIMEM, incubated for 15 min with the compounds at various concentrations and then carried out dead cell measurements according to manufacturer protocol. […] signals before and after the addition of digitonin were used to calculate the % of dead cells in each independent well.
Another undesirable side effect would be the reduction of ROS production in the assays due to cell death rather than an inhibition of Nox2. To verify that this was not the case for these tetrahydroisoquinolines, the effect of various concentrations of the compounds on cell viability was determined using a commercially available CytoTox-Glo assay (Promega). This assay measures the concentration of proteases released from cells that have lost membrane integrity (i.e., dead cells). Data are expressed as % of live cells in each independent well (=100−% dead cells).

[3] = tested on: human pulmonary artery endothelial cells (HPAEC); assay: ROS production of HPAEC treated with angiotensin II; type: cell-based; settings: angiotensin II 24 hrs, 25 μM compound, preliminary data
Experimental: Cos-Nox2, Cos-Nox1, human fibroblasts were cultured in DMEM, 10% FBS-supplemented media, human pulmonary artery endothelial cells were cultured in EBM2media containing growth factors (Lonza) and rat neonatal cardiomyocytes were cultured in DMEM/F12 (50/50) media supplemented with 5% horse serum, 100 μM BrdU and Insulin-Transferrin-Selenium (ITS, Gibco).

[4] = cell-free system, data not shown, read-out: IC50 in a cell-free system

| SMILES | Effect on cell viability [2] | IC50 [1, 4] [µM] | AngII-stimulated ROS production [3] | also measured |
| --- | --- | --- | --- | --- |
| C=C(C)CC1NC2CC(C)(C)C1c1c(Br)cccc12 (racemic) [Compound 7, (±)-(1S,4R,9S)-5-Bromo-3,3-dimethyl-9-(2-methylallyl)-1,2,3,4-tetrahydro-1,4-(epimino-methano)-naphthalene] | had any effect on cell viability | – | – | LiDS-stimulated O2•− generation ([1]; 6.3 μM compound, lysed COS-Nox2 cells, 130 μM LiDS, 180 μM NADPH): almost non-stimulated levels |
| C=C(C)CC1C2c3c(Br)cccc3C(CC2(C)C)N1CCCCC (racemic) [Compound 11g, (±)-(1S,4R,9S)-5-Bromo-3,3-dimethyl-9-(2-methylallyl-10-pentyl-1,2,3,4-tetrahydro-1,4-(epiminomethano)naphthalene] | – | ~0.03 | differential effect | IC50 ([1]; Nox2 cell homogenate stimulated with LiDS, read-out: IC50 in ROS production by Nox2 cell homogenate): 0.0324 ± 0.009 µM; IC50 in cell homogenate lower than that for whole cells ([1]; homogenate vs whole cells): 100 fold |
| C=C(C)CC1C2c3c(Br)cccc3C(CC2(C)C)N1Cc1cccs1 (racemic) [Compound 11h, (±)-(1S,4R,9S)-5-Bromo-3,3-dimethyl-9-(2-methylallyl)-10-(thiophen-2-ylmethyl)-1,2,3,4-tetrahydro-1,4-(epiminomethano)naphthalene] | – | ~0.03 | differential effect | – |
| CC(C)CC1NC2CC(C)(C)C1c1c(Br)cccc12 (racemic) [Compound 13] | had any effect on cell viability | – | – | – |
| C=C(C)C[C@@H]1N[C@H]2CC(C)(C)[C@@H]1c1c(Br)ccc(Br)c12 [Compound 9] | had any effect on cell viability | – | – | – |
